Source: patent US20250268958A1, “COMMENSAL BACTERIA PROMOTE ENDOCRINE-RESISTANCE IN PROSTATE CANCER VIA ANDROGEN BIOSYNTHESIS” (FONDAZIONE PER L'ISTITUTO ONCOLOGICO DI RICERCA (IOR), priority 2021, published 2025)

Legend:
Ruminococcaceae family [1] = test: Gut microbiota of mCRPC patients stratified by ADT regimen (whole genome metagenome); type: in vivo, human; settings: Abiraterone vs Enzalutamide
Experimental: FIG. 16—Different ADT regimens alter gut microbiota composition. (A) Pie chart representing the number of CRPC patients receiving Enzalutamide, Abiraterone or other treatment (Apalutamide, Docetaxel, Cabazitaxel or no active treatment) at the moment of the rectal swab. […] (C) Patients treated with enzalutamide (n=14) and apalutamide (n=1) were stratified according to the circulating testosterone level (≤10 ng/dL or >10 ng/dL). Pie charts show, within each group, the fraction of patients having Ruminococcus DSM_10044 in their gut microbiota.
Collection of patient feces. Patients with hormone-sensitive (HSPC) and metastatic CRPC consented to the analysis of their rectal swabs. […]
Whole genome metagenome analysis of patient feces. […] DNA was analyzed by Qubit (Invitrogen, Thermo Fisher Scientific, Waltham, USA) and integrity was checked by agarose gel electrophoresis.
Illumina TruSeq DNA libraries were prepared using the TruSeq nano DNA Library preparation kit (Illumina, San Diego, USA) according to the manufacturer's instructions. […] The final libraries were quantified using a Quant-iT™ PicoGreen™ ds DNA Assay Kit (Thermo Fisher Scientific, Waltham, USA) and equimolarly pooled prior to sequencing. […] Quality of the reads in fastq format was checked with the software FastQC (version 0.11.8). […]

TRAMP-C1 cells = test: TRAMP-C1 allograft tumor model, castrated (CTX) or sham-operated mice; settings: high dose of testosterone vs vehicle
Experimental: C57BL6/N mice were challenged s.c. with 2.5×10^6 TRAMP-C1 cells. When tumors became palpable, mice were either castrated (CTX) or sham-operated (sham). After surgery, mice were either administered normal drinking water or antibiotic cocktail (ABX: neomycin 1 g/L, ampicillin 1 g/L, vancomycin 0.5 g/L and metronidazole 2 mg/mouse every other day). (A) Tumor volume (Sham n=14, Sham ABX n=4, CTX n=20, CTX ABX n=10) and (B) survival curve. […] Statistical analysis was performed with: (A), (F), (G) two-way ANOVA and Sidak's multiple comparison test; (B), (H), (1) Mantel Cox test; (C), (E), (K) unpaired two-sided Student's t-test. NS, not significant; *P<0.05; **P<0.01; ***P<0.001; ****P<0.0001.
Mice. […] 4 weeks old male C57BL6/N and NOD/SCID mice were purchased from Charles River (Calco, Italy) and acclimatized for four weeks before experimentation.

Ruminococcaceae family [2] = test: Gut microbiota composition in TRAMP-C1 mice under bipolar androgen therapy; type: in vivo, mouse; settings: high dose of testosterone vs vehicle
Experimental: FIG. 7—Pten^pc−/− and LNCaP castrated mice harbor a peculiar gut microbiota. […] (E) qPCR showing the abundance of R. gnavus and B. acidifaciens in feces of LNCaP mice that were either sham-operated (n=4), CTX (n=6), CTX+enzalutamide (n=6) at 85 days. TRAMP-C1 mouse models were treated with either vehicle or high dose of testosterone as per bipolar androgen therapy. (F) Tumor volume (vehicle n=5, high testosterone n=5). (G) Serum testosterone levels (vehicle n=5, high-testosterone n=5). (H) Heatmap representing differentially abundant bacteria (FDR<0.05) between mice injected with vehicle or high testosterone-dose (vehicle n=4, high-testosterone n=4). […]
Pten^pc−/− Murine 16S rDNA sequencing analysis and bacteria qPCR. […] DNA was extracted using a GNOME DNA isolation kit (MP) following the protocol described in (J. P. Furet et al., Comparative assessment of human and farm animal faecal microbiota using real-time quantitative PCR. FEMS Microbiol Ecol 68, 351-362 (2009)). […] In short, DNA concentration and quality were evaluated using NanoDrop 2000. […] PCR products were visualized on an agarose gel then quantified by qPCR using the KAPA Library Quantification Kit (KAPA Biosystems, KK4824). […] The pooled library was purified using the Agencourt AMPure XP kit (Beckman Coulter, A63880) and quantified with the same method prior to sequence using paired-end (read length=300 bases) on Illumina MiSeq. […]

Structure (SMILES)	expansion of Ruminococcaceae family in gut microbiota (Ruminococcaceae family [1])	tumor volume (TRAMP-C1 cells)	abundance of Ruminococcaceae family (Ruminococcaceae family [2])
CNC(=O)c1ccc(N2C(=S)N(c3ccc(C#N)c(C(F)(F)F)c3)C(=O)C2(C)C)cc1F [Enzalutamide]	presented an expansion of Ruminococcaceae family		
C[C@]12CC[C@H]3[C@@H](CCC4=CC(=O)CC[C@@]43C)[C@@H]1CC[C@@H]2O [bipolar androgen therapy, Testosterone]		promoted tumor inhibition	decreased the abundance of Ruminococcaceae family
